Patent US11214803B2, “Modulators of YAP1 expression” (Ionis Pharmaceuticals, Inc., priority 2019, dated 2022)
Strand notation (5' to 3'): a small letter for the sugar, then the base; units joined by * are phosphorothioate-linked, units joined directly phosphodiester-linked; [ ] holds rarer units or linkages, { } end groups; capitals alone tell only the bases. e = 2'-O-(2-methoxyethyl) (MOE); k = constrained ethyl (cEt); [5mC] = 5-methylcytosine; d = 2'-deoxy (DNA); m = 2'-O-methyl

These substances were tested on Yap1 mRNA (assay: Antisense inhibition of human Yap1 in SNU-449 cells by modified oligonucleotides, single dose (Example 5, RTS36584)). Conditions: Table 39; SNU-449 cells, 10,000 cells per well, free uptake, 2,000 nM oligonucleotide, approx. 48 hours; RTS36584; normalized to RIBOGREEN; Yap1 mRNA relative to untreated control.
Format: cell-based
Procedure, shortened: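 Free uptake, 2,000 nM, ~48 h, SNU-449 at 10,000 cells/well. Read-out: qRT-PCR (RTS36584), RIBOGREEN-normalised, expressed as % UTC. Asterisk = oligo hits amplicon region.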

Row | Substance | YAP1 (% UTC)
1 | 1198429 (kA*dT*dT*dG*d[5mC]*dA*dA*dT*d[5mC]*dT*dG*kT*e[5mC]*kT*eG*kA; antisense) [Compound 1198429] | 48 % UTC
2 | 1198384 (kT*dA*dT*dT*dA*dG*dA*dG*dT*dA*dT*kG*eT*kG*eG*k[5mC]; antisense) [Compound 1198384] | 6 % UTC
3 | 1095399 (antisense k[5mC]*dA*d[5mC]*dT*dG*dA*dG*dG*dT*dA*dT*kA*eA*k[5mC]*eT*kG) [Compound 1095399] | 46 % UTC
4 | 1198436 (kT*dA*dT*dG*dT*dA*dA*dT*dA*dT*dT*kG*e[5mC]*kA*eA*kT; antisense) [Compound 1198436] | 69 % UTC
5 | 1198376 (kT*dG*dG*dA*dA*dA*dT*dT*dG*dT*d[5mC]*kT*e[5mC]*kA*eT*kG; antisense) [Compound 1198376] | 36 % UTC

Same assay, conditions: Table 40 (separate experiment); SNU-449 cells, 10,000 cells per well, free uptake, 2,000 nM oligonucleotide, approx. 48 hours; RTS36584; normalized to RIBOGREEN; Yap1 mRNA relative to untreated control

Row | Substance | YAP1 (% UTC)
6 | 1198428 (kG*dA*d[5mC]*dA*dA*d[5mC]*dT*d[5mC]*dT*dT*dA*kT*eA*kT*eG*kG; antisense) [Compound 1198428] | 62 % UTC
7 | 1198761 (kT*eT*kT*dA*dG*dG*dA*dT*dG*d[5mC]*dA*dT*eG*eG*kT*kT; antisense) [Compound 1198761] | 42 % UTC

Same assay, conditions: Table 41; SNU-449 cells, 10,000 cells per well, free uptake, 2,000 nM modified oligonucleotide, approximately 48 hours; RTS36584; normalized to RIBOGREEN; Yap1 mRNA relative to untreated control cells

Row | Substance | YAP1 (% UTC)
8 | 1198669 (antisense kA*kG*dG*dA*dT*dG*d[5mC]*dA*dT*dG*dG*dT*kT*eT*kT*eT) [Compound 1198669] | 61 % UTC
9 | 1198666 (antisense kG*kT*dG*d[5mC]*dT*dT*dT*dG*dG*dA*dA*dG*kA*eT*k[5mC]*eT) [Compound 1198666] | 44 % UTC
10 | 1198690 (antisense kT*kA*dA*dT*dA*dT*dT*dG*d[5mC]*dA*dA*dT*k[5mC]*eT*kG*eT) [Compound 1198690] | 64 % UTC
11 | 1198665 (antisense kT*kG*d[5mC]*dT*dT*dT*dG*dG*dA*dA*dG*dA*kT*e[5mC]*kT*eG) [Compound 1198665] | 38 % UTC

Same assay, conditions: Table 42 (separate experiment); SNU-449 cells, 10,000 cells per well, free uptake, 2,000 nM modified oligonucleotide, approximately 48 hours; RTS36584; normalized to RIBOGREEN; Yap1 mRNA relative to untreated control cells

Row | Substance | YAP1 (% UTC)
12 | 1198210 (kT*kT*dA*dG*dA*dG*dT*dA*dT*dG*dT*eG*eG*e[5mC]*kA*kA; antisense) [Compound 1198210] | 28 % UTC
13 | 1198230 (kG*kG*dA*dA*dG*dA*dT*d[5mC]*dT*dG*dA*eA*eA*e[5mC]*kT*k[5mC]) [Compound 1198230] | 81 % UTC

Same assay, conditions: Table 43 experiment; SNU-449 cells, 10,000 cells per well, free uptake, 2,000 nM, approximately 48 hours; RTS36584; Yap1 mRNA normalized to RIBOGREEN, relative to untreated control cells

Row | Substance | YAP1 (% UTC)
14 | 1198473 (antisense kT*k[5mC]*dT*dA*dT*dA*dT*dT*dA*dG*dA*eG*kT*eA*kT*eG) [Compound 1198473] | 66 % UTC
15 | 1198269 (kA*kA*dA*dG*dT*dG*dT*dA*dT*dG*dT*e[5mC]*eA*eG*kA*kA; antisense) [Compound 1198269] | 58 % UTC
16 | 1198276 (kA*kG*dT*dA*dA*dG*dG*dT*dT*dT*d[5mC]*e[5mC]*e[5mC]*eA*kG*kA; antisense) [Compound 1198276] | 52 % UTC
17 | 1198468 (antisense kT*kT*dA*dG*dA*dG*dT*dA*dT*dG*dT*eG*kG*e[5mC]*kA*eA) [Compound 1198468] | 22 % UTC

Same assay, conditions: Table 44 experiment; SNU-449 cells, 10,000 cells per well, free uptake, 2,000 nM, approximately 48 hours; RTS36584; Yap1 mRNA normalized to RIBOGREEN, relative to untreated control cells

Row | Substance | YAP1 (% UTC)
18 | 1198505 (kA*kT*dT*d[5mC]*dA*dG*dA*dT*dT*dT*dA*eG*kG*eA*kT*eG; antisense) [Compound 1198505] | 73 % UTC
19 | 1198890 (kT*kG*dT*d[5mC]*dT*d[5mC]*dA*dT*dG*d[5mC]*d[5mC]*kT*dT*kA*dT*kA) [Compound 1198890] | 19 % UTC
20 | 1198476 (antisense kA*kG*dG*dT*dA*dT*dA*dA*d[5mC]*dT*dG*eG*kG*e[5mC]*kA*eA) [Compound 1198476] | 31 % UTC
21 | 1198504 (kT*k[5mC]*dA*dG*dA*dT*dT*dT*dA*dG*dG*eA*kT*eG*k[5mC]*eA; antisense) [Compound 1198504] | 15 % UTC
22 | 1198497 (antisense kA*kG*dG*dA*dT*dG*d[5mC]*dA*dT*dG*dG*eT*kT*eT*kT*eT) [Compound 1198497] | 22 % UTC

Same assay, conditions: Table 45; Yap1 mRNA as percent of untreated control, SNU-449 cells, single dose

Row | Substance | YAP1 (% UTC)
23 | 1198931 (kA*kG*dG*dA*dT*dG*d[5mC]*dA*dT*dG*dG*kT*dT*kT*dT*kT; antisense) [Compound 1198931] | 47 % UTC
24 | 1198918 (kG*k[5mC]*dA*d[5mC]*dT*dT*dT*dT*dA*d[5mC]*dA*kT*dT*kA*dG*kG) [Compound 1198918] | 27 % UTC
25 | 1198913 (kT*kT*dA*d[5mC]*dA*dT*dT*dA*dG*dG*dA*kA*d[5mC]*kA*dA*kG; antisense) [Compound 1198913] | 86 % UTC
26 | 1198914 (kT*kT*dT*dT*dA*d[5mC]*dA*dT*dT*dA*dG*kG*dA*kA*d[5mC]*kA; antisense) [Compound 1198914] | 68 % UTC

Same assay, conditions: Table 46; Yap1 mRNA as percent of untreated control, SNU-449 cells, single dose

Row | Substance | YAP1 (% UT)
27 | 1198867 (kG*kT*dA*dA*dT*dA*dT*dT*dG*d[5mC]*dA*kA*eT*k[5mC]*eT*kG; antisense) [Compound 1198867] | 25 % UT
28 | 1198810 (antisense kT*kG*dG*dA*dA*dA*dT*dT*dG*dT*d[5mC]*kT*e[5mC]*kA*eT*kG) [Compound 1198810] | 50 % UT
29 | 1198813 (antisense kA*kG*dT*dA*dT*dG*dT*dG*dG*d[5mC]*dA*kA*eT*kA*eA*kT) [Compound 1198813] | 55 % UT
30 | 1198848 (kA*kT*dT*dT*dA*dG*dG*dA*dT*dG*d[5mC]*kA*eT*kG*eG*kT; antisense) [Compound 1198848] | 47 % UT
31 | 1198833 (kA*kG*d[5mC]*dA*d[5mC]*dT*dT*dT*dT*dA*d[5mC]*kA*eT*kT*eA*kG; antisense) [Compound 1198833] | 54 % UT
32 | 1198838 (kT*kT*dT*dG*dG*dA*dA*dG*dA*dT*d[5mC]*kT*eG*kA*eA*kA; antisense) [Compound 1198838] | 66 % UT
33 | 1198808 (antisense kG*kA*dA*dA*dT*dT*dG*dT*d[5mC]*dT*d[5mC]*kA*eT*kG*e[5mC]*k[5mC]) [Compound 1198808] | 40 % UT
34 | 1198806 (antisense kA*kA*dT*dT*dG*dT*d[5mC]*dT*d[5mC]*dA*dT*kG*e[5mC]*k[5mC]*eT*kT) [Compound 1198806] | 33 % UT
35 | 1198811 (antisense kA*kT*dG*dG*dA*dA*dA*dT*dT*dG*dT*k[5mC]*eT*k[5mC]*eA*kT) [Compound 1198811] | 38 % UT
36 | 1198841 (kT*kG*d[5mC]*dT*dT*dT*dG*dG*dA*dA*dG*kA*eT*k[5mC]*eT*kG; antisense) [Compound 1198841] | 116 % UT

Same assay, conditions: Table 48; Yap1 mRNA level relative to untreated control; modified oligonucleotides targeting SEQ ID NO.: 1 and 2

Row | Substance | YAP1 (% UT)
37 | 1198294 (kA*kG*kA*dG*dT*dA*dT*dG*dT*dG*dG*d[5mC]*kA*eA*kT*eA; antisense) [Compound 1198294] | 13 % UT
38 | 1198310 (kA*k[5mC]*kT*dT*dT*dT*dA*d[5mC]*dA*dT*dT*dA*kG*eG*kA*eA; antisense) [Compound 1198310] | 28 % UT

Same assay, conditions: Table 49; Yap1 mRNA level relative to untreated control; modified oligonucleotides targeting SEQ ID NO.: 1 and 2

Row | Substance | YAP1 (% UT)
39 | 1198584 (antisense TTAGGATGCATGGTTT; chemistry not fully specified) [Compound 1198584] | 37 % UT
40 | 1198566 (antisense kT*kT*kT*dT*dA*d[5mC]*dA*dT*dT*dA*dG*dG*kA*kA*k[5mC]*eA) [Compound 1198566] | 83 % UT
41 | 1198583 (antisense kA*kG*kG*dA*dT*dG*d[5mC]*dA*dT*dG*dG*dT*kT*kT*kT*eT) [Compound 1198583] | 27 % UT

Same assay, conditions: Table 50; Yap1 mRNA remaining as percent of untreated control (UT), SNU-449 cells, single dose

Row | Substance | YAP1 (% UT)
42 | 1198586 (antisense kA*kT*kT*dT*dA*dG*dG*dA*dT*dG*d[5mC]*dA*kT*kG*kG*eT) [Compound 1198586] | 96 % UT
43 | 1197234 (antisense kT*kT*kA*dG*mA*dG*dT*dA*dT*dG*dT*dG*dG*k[5mC]*kA*kA) [Compound 1197234] | 24 % UT

Same assay, conditions: Table 51; Yap1 mRNA remaining as percent of untreated control (UT), SNU-449 cells, single dose

Row | Substance | YAP1 (% UT)
44 | 1197301 (AGATUTAGGATGCATG; chemistry not fully specified) [Compound 1197301] | 71 % UT
45 | 1197308 (kA*kA*kT*dA*mU*dT*dG*d[5mC]*dA*dA*dT*d[5mC]*dT*kG*kT*k[5mC]; antisense) [Compound 1197308] | 49 % UT

Same assay, conditions: Table 52; Yap1 mRNA, modified oligonucleotides targeting SEQ ID NO: 1 and 2

Row | Substance | YAP1 (% UT)
46 | 1200872 (kA*kG*kA*d[5mC]*dT*mA*dA*dG*dT*dA*dA*dG*dG*kT*kT*kT; antisense) [Compound 1200872] | 98 % UT
47 | 1200845 (k[5mC]*kA*kA*d[5mC]*dT*mC*dT*dT*dA*dT*dA*dT*dG*kG*kT*kT; antisense) [Compound 1200845] | 100 % UT
48 | 1200844 (kA*kA*k[5mC]*dT*d[5mC]*mU*dT*dA*dT*dA*dT*dG*dG*kT*kT*kT; antisense) [Compound 1200844] | 132 % UT
49 | 1200824 (kG*k[5mC]*kT*dT*dT*mG*dG*dA*dA*dG*dA*dT*d[5mC]*kT*kG*kA; antisense) [Compound 1200824] | 43 % UT
